Results as given in publication PMC8146939 (Biomedicines, 2021).

Target: T1, GIRK2 (Homo sapiens, UniProt P48051)
T1 construct: gene KCNJ6; homotetramer GIRK2
T1 sequence (P48051 1-423): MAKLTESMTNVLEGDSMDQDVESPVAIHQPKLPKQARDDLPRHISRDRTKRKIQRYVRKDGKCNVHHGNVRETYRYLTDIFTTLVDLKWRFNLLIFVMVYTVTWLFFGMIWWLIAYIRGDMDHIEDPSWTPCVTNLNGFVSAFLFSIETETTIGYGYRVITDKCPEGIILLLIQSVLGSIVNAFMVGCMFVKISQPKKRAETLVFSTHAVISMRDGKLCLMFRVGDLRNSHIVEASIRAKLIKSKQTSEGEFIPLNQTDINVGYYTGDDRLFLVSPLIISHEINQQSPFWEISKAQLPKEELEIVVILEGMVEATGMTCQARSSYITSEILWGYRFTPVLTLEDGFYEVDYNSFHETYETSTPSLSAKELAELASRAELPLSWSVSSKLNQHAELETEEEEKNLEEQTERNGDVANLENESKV
Assay: two-electrode voltage clamp in Xenopus oocytes expressing homotetrameric GIRK2, single concentration […]
Assay type: cell-based
Settings: read-out: % reduction in inward K+ currents at 10 μM

Cc1c(C(=O)c2cccc3ccccc23)c2cccc3c2n1[C@H](CN1CCOCC1)CO3 [WIN55,212-2] was tested, and the inhibition at 10 µM was 8.91 ± 1.68%.
